Measurements published in paper PMC2504689 (Phytotherapy research : PTR, 2008).
In brackets after ≈: the same amount, converted by molar mass.

How the values were obtained:
[1] = test system: M. tuberculosis Erdman (ATCC 35801); assay: Microplate Alamar Blue Assay; assay type: cell-based, Mycobacterium tuberculosis; details: for MIC, Erdman: MABA, concentration giving ≥ 90% inhibition, 7 days, 37 °C, triplicate; for SI (selectivity index = IC50/MIC), Erdman: Vero IC50 / MIC Erdman, limited by 120 μg/ml cytotoxicity cutoff
[2] = test system: M. tuberculosis H37Rv (ATCC 27294); assay: Microplate Alamar Blue Assay; assay type: cell-based, Mycobacterium tuberculosis; details: for MIC, H37Rv: MABA, concentration giving ≥ 90% inhibition, 7 days, 37 °C, triplicate; for SI (selectivity index = IC50/MIC), H37Rv: Vero IC50 / MIC H37Rv, limited by 120 μg/ml cytotoxicity cutoff
[3] = assay type: cell-based, African green monkey; details: African green monkey
[4] = test system: Mycobacterium tuberculosis (H37Rv and ERDMAN); assay: MABA, result stated for both strains without assignment; assay type: cell-based
[5] = test system: Vero cells; assay type: cell-based, African green monkey; details: Vero cells, 72 hours; cutoff 120 μg/ml

Structure (SMILES) | MIC, Erdman [1] | SI (selectivity index = IC50/MIC), Erdman [1] | MIC, H37Rv [2] | SI (selectivity index = IC50/MIC), H37Rv [2] | IC50 at 72 h [3] | MIC [4] | Cytotoxicity IC50 [5]
C=C[C@@H](O)C#CC#C[C@@H](O)/C=C\CCCCCCC [Compound 1, falcarindiol] | 6.0 µg/mL (≈ 23 µM) | >19 | 26.7 µg/mL (≈ 103 µM) | >4 | > 120 µg/mL | 1.4 to 26.7 µg/mL (≈ 5.38 to 103 µM) | –
C=CC(O)C#CC#CC(O)/C=C\CCCCCCCCOC(C)=O (stereo not drawn) [Compound 2, 9Z,17-octadecadiene-12,14-diyne-1,11,16-triol,1-acetate] | 1.4 µg/mL (≈ 4.21 µM) | > 100 | 25.3 µg/mL (≈ 76.1 µM) | >4 | – | – | >120 µg/mL
CCCCCCC/C=C\[C@H](O)C#CC#C[C@@H](O)CC [Compound 3, oplopandiol] | 49.5 µg/mL (≈ 189 µM) | >2 | 50.2 µg/mL (≈ 191 µM) | >2 | > 120 µg/mL | – | –
C=CC(O)C#CC#CC(O)C1OC1CCCCCCC (stereo not drawn) [Compound 4, heptadeca-1-ene-9,10-epoxy-4,6-diyne-3,8-diol] | – | – | – | – | – | – | >120 µg/mL
CCCCCCC/C=C\C(O)C#CC#CC(=O)CCOC (stereo not drawn) [Compound 5, 8-hydroxy-1-methoxy-(Z)-9-heptadecene-4,6-diyn-3-one] | above 60 μg/mL | – | above 60 μg/mL | – | > 120 µg/mL | > 60 µg/mL | –
CO[C@H]1/C=C/O[C@@]2(C)Oc3c(C)c(O)c4c(O)c(c(/C=N/N5CCN(C)CC5)c(O)c4c3C2=O)NC(=O)/C(C)=C\C=C\[C@H](C)[C@H](O)[C@@H](C)[C@@H](O)[C@@H](C)[C@H](OC(C)=O)[C@@H]1C [RMP, Rifampin, reference compound] | – | 2232 | – | 1860 | 112 µg/mL (≈ 136 µM) | – | –
